Data from patent US11655239B2 (SHANGHAI INSTITUTE OF MATERIAL MEDICA, CHINESE ACADEMY OF …, priority 2019, dated 2023).

Tests used:
Assay type in all cases: biochemical
DDR2 = DDR2 (Homo sapiens (Human), UniProt Q16832); experiment: DDR2 enzyme activity test (ELISA); conditions: read-out: DDR2 IC50
Procedure: The optical rotation and the inhibitory activity against DDR2 enzyme of the compounds S11-A and S11-B obtained by the resolution in Example 12, and the chirally synthesized compounds S11-A′ and S11-B′ in Example 13 were tested (referred to the operation in Effect example 1), and the results are shown in Table 3 below:
Detection method: Enzyme-linked immunosorbent assay (ELISA)
Test receptor tyrosine kinase: DDR2
The kinase used in the experiment was obtained by our laboratory using the insect baculovirus expression system to express and purify the recombinant protein containing the protein kinase region; polyglutamic acid-tyrosine peptide segment [Poly(Glu, Tyr) 4:1] and sodium vanadate were purchased from Sigma; the anti-phosphorylated monoclonal antibody PY99 was purchased from Santa Cruz; horseradish peroxidase labeled goat anti-murine secondary antibody was purchased from Calbiochem; ATP and OPD were purchased from Sangon Biotech (Shanghai) Co., Ltd.; the remaining reagents were purchased from Sinopharm Chemical Reagent Co., Ltd. The reaction ELISA plate (#2592) was purchased from Corning. The full-wavelength microplate reader for experiment reading was a product of Molecular Device, model: SpectraMax 190; the experimental water was distilled water produced by Sinopharm Group.
The compound was centrifuged at 12,000 g for 5 min, and DMSO was added to prepare a 10^-2M stock solution, which was vortexed evenly, then sonicated for 10 min and stored at −40° C. for later use. During the test, the compound was diluted with DMSO from the stock solution to 100 times the test concentration (the DMSO concentration in the system was 1%).
(§1) 1) Enzyme reaction substrate Poly(Glu, Tyr) 4:1 was diluted to 20 μg/mL with potassium-free PBS (10 mM sodium phosphate buffer, 150 mM NaCl, pH 7.2-7.4), and the microtiter plate was coated with 125 μL/well and placed at 37° C. for 12-16 hours of reaction. The liquid in the well was discard. The plate was washed three times with T-PBS (potassium-free PBS containing 0.1% Tween-20, 200 μL/well), 5 minutes each time. The ELISA plate was dried in an oven at 37° C. for 1 to 2 hours.
(§2) 2) Reaction buffer (50 mM HEPES pH 7.4, 50 mM MgCl2, 0.5 mM MnCl2, 0.2 mM Na3VO4, 1 mM DTT) diluted ATP solution (49 μL) was added to each well, 1 μL of the compound to be tested was added to each well, and then 50 μL of DDR2 kinase domain recombinant protein diluted in the reaction buffer was added to start the reaction. Two control wells without ATP were set in each experiment. The plate placed on a shaker (100 rpm) at 37° C. for 1 hour of reaction. The liquid in the well was discarded and the plate was washed three times with T-PBS.
(§3) 3) Antibody PY99 dilution solution (the antibody was diluted 1:500 with T-PBS containing BSA 5 mg/mL) was added at 100 μL/well, and shaken on a shaker at 37° C. for 0.5 hour of reaction. The liquid in the well was discarded and the plate was washed three times with T-PBS.
(§4) 4) Horseradish peroxidase labeled goat anti-murine secondary antibody dilution solution (the antibody is diluted 1:2000 with T-PBS containing BSA 5 mg/ml) was added at 100 μL/well, and shaken on a shaker at 37° C. for 0.5 hour of reaction. The liquid in the well was discarded and the plate was washed three times with T-PBS.
(§5) 5) 2 mg/ml of OPD color developing solution [diluted with 0.1 M citric acid-sodium citrate buffer (pH=5.4) containing 0.03% H2O2] was added at 100 μL/well and reacted for 1 to 10 minutes at 25° C. in the dark.
(§6) 6) 2M H2SO4 was added at 50 μL/well to stop the reaction, and a tunable wavelength microplate reader VERSAmax was used for reading at a wavelength of 490 nm.
The IC50 value was obtained by four-parameter regression using the software that came with the microplate reader.

EGFR = EGFR (Homo sapiens (Human), UniProt P00533); experiment: Enzyme selectivity test (ELISA), EGFR
Procedure: as §1, §2, §3, §4, §5, §6
(§7) The IC50 value was obtained by four-parameter regression using the software that came with the microplate reader. […]

EPH-A2 = EPH-A2 (Homo sapiens (Human), UniProt P29317); experiment: Enzyme selectivity test (ELISA), EPH-A2
Procedure: as §1, §2, §3, §4, §5, §6, §7

FGFR-2 = FGFR-2 (Homo sapiens (Human), UniProt P21802); experiment: Enzyme selectivity test (ELISA), FGFR-2
Procedure: as §1
as §2, with “T-PBS. […]” for “T-PBS.”
as §6, §7

kinases = experiment: Enzyme selectivity test, kinase panel overall; conditions: kinase panel of Table 5
Excerpt: Except that the enzyme was different, other test methods and conditions were the same as the DDR2 enzyme activity test method in Effect example 1.

RET = RET (Homo sapiens (Human), UniProt P07949); experiment: Enzyme selectivity test (ELISA), RET
Procedure: as §1, §2, §3, §4, §5, §6, §7

Abl = Abl (Homo sapiens (Human), UniProt P00519); experiment: Enzyme selectivity test (ELISA), Abl
Procedure: as §1, §2, §3, §4, §5, §6, §7

FGFR-1 = FGFR-1 (Homo sapiens (Human), UniProt P11362); experiment: Enzyme selectivity test (ELISA), FGFR-1
Procedure: as §1, §2, §3, §4, §5, §6, §7

KDR = KDR (Homo sapiens (Human), UniProt P35968); experiment: Enzyme selectivity test (ELISA), KDR
Procedure: as §1, §2, §3, §4, §5, §6, §7

FGFR-3 = FGFR-3 (Homo sapiens (Human), UniProt P22607); experiment: Enzyme selectivity test (ELISA), FGFR-3
Procedure: as §1
as §2, with “T-PBS. […]” for “T-PBS.”
as §6, §7

ErbB2 = ErbB2 (Homo sapiens (Human), UniProt P04626); experiment: Enzyme selectivity test (ELISA), ErbB2
Procedure: as §1, §2, §3, §4, §5, §6, §7

AXL = AXL (Homo sapiens (Human), UniProt P30530); experiment: Enzyme selectivity test (ELISA), AXL
Procedure: as §1, §2, §3, §4, §5, §6, §7

Src = Src (Homo sapiens (Human), UniProt P12931); experiment: Enzyme selectivity test (ELISA), Src
Procedure: as §1, §2, §3, §4, §5, §6, §7

ALK = ALK (Homo sapiens (Human), UniProt Q9UM73); experiment: Enzyme selectivity test (ELISA), ALK
Procedure: as §1, §2, §3, §4, §5, §6, §7

PDGFR-α = PDGFR-α (Homo sapiens (Human), UniProt P16234); experiment: Enzyme selectivity test (ELISA), PDGFR-α
Procedure: as §1, §2, §3, §4, §5, §6, §7

IGF-1R = IGF-1R (Homo sapiens (Human), UniProt P08069); experiment: Enzyme selectivity test (ELISA), IGF-1R
Procedure: as §1, §2, §3, §4, §5, §6, §7

C-Kit = C-Kit (Homo sapiens (Human), UniProt P10721); experiment: Enzyme selectivity test (ELISA), C-Kit
Procedure: as §1, §2, §3, §4, §5, §6, §7

Met = Met (Homo sapiens (Human), UniProt P08581); experiment: Enzyme selectivity test (ELISA), Met
Procedure: as §1, §2, §3, §4, §5, §6, §7

PDGFR-β = PDGFR-β (Homo sapiens (Human), UniProt P09619); experiment: Enzyme selectivity test (ELISA), PDGFR-β
Procedure: as §1, §2, §3, §4, §5, §6, §7

Flt-3 = Flt-3 (Homo sapiens (Human), UniProt P36888); experiment: Enzyme selectivity test (ELISA), Flt-3
Procedure: as §1, §2, §3, §4, §5, §6, §7

ErbB4 = ErbB4 (Homo sapiens (Human), UniProt Q15303); experiment: Enzyme selectivity test (ELISA), ErbB4
Procedure: as §1, §2, §3, §4, §5, §6, §7

FGFR-4 = FGFR-4 (Homo sapiens (Human), UniProt P22455); experiment: Enzyme selectivity test (ELISA), FGFR-4
Procedure: as §1
as §2, with “T-PBS. […]” for “T-PBS.”
as §6, §7

VEGFR-1 = VEGFR-1 (Homo sapiens (Human), UniProt P17948); experiment: Enzyme selectivity test (ELISA), VEGFR-1
Procedure: as §1, §2, §3, §4, §5, §6, §7

ErbB2, sequence (P04626 23-1255, species assumed): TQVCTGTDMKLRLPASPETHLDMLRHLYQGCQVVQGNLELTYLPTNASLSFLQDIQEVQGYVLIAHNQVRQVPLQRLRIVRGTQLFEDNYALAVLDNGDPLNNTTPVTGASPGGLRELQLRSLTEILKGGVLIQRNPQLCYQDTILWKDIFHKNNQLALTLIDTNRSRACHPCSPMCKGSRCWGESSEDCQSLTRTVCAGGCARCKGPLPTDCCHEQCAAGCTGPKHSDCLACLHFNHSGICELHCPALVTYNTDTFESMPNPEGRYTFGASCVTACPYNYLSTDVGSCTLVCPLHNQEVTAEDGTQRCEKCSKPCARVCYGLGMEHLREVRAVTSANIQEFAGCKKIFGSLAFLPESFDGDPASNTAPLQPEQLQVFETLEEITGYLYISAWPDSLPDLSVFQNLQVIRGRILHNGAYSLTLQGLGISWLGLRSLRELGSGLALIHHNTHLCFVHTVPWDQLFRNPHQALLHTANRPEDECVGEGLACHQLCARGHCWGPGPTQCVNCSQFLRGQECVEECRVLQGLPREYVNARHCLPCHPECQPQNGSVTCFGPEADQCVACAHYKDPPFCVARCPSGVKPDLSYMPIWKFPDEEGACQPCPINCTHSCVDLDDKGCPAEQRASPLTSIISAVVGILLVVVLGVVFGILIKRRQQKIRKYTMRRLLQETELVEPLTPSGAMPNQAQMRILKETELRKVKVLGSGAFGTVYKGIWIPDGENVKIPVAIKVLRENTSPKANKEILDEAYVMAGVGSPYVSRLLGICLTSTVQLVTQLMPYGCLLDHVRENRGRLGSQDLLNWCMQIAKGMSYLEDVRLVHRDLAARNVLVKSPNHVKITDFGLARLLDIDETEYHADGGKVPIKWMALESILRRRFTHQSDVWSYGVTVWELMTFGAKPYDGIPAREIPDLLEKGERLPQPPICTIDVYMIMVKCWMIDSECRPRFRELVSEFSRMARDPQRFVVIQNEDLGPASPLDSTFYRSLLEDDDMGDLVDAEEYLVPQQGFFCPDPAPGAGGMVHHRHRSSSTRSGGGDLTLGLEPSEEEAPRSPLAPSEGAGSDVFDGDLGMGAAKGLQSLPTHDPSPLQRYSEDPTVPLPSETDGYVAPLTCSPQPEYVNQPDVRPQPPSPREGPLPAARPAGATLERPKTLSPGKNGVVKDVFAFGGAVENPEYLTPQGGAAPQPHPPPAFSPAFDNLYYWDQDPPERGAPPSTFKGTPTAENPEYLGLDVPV
KDR, sequence (P35968 20-1356, species assumed): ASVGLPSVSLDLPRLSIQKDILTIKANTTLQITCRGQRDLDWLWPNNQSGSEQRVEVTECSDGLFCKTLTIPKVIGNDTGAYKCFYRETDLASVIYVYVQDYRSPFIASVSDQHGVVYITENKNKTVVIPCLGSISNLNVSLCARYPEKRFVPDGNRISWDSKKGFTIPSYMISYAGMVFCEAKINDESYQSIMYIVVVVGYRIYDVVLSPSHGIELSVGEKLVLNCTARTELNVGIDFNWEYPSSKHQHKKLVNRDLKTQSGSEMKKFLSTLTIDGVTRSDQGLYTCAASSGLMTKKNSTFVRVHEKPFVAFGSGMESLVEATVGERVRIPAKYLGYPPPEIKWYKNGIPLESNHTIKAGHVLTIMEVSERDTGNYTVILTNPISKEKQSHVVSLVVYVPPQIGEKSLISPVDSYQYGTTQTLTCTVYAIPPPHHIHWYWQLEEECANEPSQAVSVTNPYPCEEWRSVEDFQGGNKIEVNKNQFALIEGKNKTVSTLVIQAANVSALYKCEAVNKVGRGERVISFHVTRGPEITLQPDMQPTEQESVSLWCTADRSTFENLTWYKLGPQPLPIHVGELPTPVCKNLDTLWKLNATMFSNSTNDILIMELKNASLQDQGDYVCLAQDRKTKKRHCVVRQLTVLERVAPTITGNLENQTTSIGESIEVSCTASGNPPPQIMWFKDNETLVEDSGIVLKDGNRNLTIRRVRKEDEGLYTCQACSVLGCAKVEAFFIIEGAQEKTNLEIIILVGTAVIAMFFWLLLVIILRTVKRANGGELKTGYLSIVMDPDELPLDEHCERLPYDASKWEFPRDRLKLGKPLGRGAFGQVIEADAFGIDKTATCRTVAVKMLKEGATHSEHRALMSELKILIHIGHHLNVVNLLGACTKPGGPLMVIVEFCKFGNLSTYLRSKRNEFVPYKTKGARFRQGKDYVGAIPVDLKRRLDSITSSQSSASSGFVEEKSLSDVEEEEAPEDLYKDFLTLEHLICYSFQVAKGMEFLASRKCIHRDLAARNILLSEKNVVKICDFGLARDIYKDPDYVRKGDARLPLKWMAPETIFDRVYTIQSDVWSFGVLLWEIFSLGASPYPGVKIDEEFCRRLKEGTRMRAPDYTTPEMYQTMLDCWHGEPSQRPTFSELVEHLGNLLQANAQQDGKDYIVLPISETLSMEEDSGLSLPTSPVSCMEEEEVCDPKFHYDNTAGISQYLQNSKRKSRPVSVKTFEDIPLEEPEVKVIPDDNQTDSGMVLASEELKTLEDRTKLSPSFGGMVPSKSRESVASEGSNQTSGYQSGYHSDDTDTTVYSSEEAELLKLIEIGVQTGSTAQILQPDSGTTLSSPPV
RET, sequence (P07949 29-1114, species assumed): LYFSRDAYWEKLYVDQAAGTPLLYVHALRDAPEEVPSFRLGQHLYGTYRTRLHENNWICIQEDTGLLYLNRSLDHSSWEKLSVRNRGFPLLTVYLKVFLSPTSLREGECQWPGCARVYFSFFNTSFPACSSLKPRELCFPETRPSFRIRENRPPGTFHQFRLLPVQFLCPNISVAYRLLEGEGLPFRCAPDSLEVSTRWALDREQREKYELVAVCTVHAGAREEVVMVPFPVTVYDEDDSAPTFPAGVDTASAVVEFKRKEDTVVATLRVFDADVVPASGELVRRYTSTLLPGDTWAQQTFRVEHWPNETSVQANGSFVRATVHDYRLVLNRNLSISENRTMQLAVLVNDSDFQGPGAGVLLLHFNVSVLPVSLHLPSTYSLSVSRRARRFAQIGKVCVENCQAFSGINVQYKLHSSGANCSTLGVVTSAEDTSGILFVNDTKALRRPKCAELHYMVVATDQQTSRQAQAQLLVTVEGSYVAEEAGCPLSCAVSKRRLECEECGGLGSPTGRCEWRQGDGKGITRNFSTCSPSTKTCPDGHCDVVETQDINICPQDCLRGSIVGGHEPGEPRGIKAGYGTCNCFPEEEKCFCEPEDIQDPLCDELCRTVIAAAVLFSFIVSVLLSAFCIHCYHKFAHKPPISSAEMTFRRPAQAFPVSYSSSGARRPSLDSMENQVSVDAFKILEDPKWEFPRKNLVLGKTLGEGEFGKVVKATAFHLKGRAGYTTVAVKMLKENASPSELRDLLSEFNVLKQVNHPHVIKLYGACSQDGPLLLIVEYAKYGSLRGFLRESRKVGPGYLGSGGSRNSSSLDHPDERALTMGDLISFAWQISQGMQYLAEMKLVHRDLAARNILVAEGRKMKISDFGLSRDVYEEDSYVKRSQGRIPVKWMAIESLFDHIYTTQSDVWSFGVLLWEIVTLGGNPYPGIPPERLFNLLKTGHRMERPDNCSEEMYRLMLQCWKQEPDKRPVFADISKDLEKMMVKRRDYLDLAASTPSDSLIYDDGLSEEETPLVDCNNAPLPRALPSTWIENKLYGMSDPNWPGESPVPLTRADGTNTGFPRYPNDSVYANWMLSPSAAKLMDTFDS
VEGFR-1, sequence (P17948 27-1338, species assumed): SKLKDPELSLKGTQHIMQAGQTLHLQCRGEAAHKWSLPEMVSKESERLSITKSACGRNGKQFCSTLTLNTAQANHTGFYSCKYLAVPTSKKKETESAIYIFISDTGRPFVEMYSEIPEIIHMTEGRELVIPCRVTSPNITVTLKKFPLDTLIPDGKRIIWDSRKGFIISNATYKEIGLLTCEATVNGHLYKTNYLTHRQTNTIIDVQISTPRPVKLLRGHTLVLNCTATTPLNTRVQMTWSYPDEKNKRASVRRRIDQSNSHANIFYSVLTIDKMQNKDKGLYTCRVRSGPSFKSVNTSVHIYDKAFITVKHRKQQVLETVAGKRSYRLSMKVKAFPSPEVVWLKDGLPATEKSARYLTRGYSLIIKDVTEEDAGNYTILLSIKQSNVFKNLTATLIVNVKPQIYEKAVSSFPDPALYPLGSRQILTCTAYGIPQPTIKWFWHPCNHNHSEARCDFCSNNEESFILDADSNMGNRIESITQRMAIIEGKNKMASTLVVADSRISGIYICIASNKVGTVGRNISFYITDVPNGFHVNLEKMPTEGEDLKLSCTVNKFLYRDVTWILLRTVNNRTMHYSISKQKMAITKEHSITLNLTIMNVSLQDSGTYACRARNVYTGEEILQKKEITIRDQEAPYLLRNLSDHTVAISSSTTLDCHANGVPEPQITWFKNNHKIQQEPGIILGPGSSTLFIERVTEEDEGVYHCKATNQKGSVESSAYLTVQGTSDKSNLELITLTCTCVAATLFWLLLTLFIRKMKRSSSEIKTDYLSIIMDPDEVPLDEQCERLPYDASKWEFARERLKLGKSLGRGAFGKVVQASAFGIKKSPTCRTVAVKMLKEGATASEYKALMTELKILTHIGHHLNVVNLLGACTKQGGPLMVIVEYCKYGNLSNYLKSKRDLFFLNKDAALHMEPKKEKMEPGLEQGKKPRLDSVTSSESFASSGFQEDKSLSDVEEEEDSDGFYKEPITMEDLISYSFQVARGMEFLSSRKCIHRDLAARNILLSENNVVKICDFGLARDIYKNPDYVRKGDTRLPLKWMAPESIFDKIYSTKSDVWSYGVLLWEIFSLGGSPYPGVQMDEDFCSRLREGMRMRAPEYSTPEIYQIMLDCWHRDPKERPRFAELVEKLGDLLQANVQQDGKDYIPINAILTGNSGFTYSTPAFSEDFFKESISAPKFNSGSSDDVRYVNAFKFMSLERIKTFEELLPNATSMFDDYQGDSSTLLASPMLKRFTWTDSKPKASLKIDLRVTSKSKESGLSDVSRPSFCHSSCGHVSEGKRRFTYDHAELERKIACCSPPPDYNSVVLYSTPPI

- IC50 (DDR2): 38.3 ± 2.8 nM
- IC50 (EGFR): > 1000 nM
- IC50 (EPH-A2): > 1000 nM
- IC50 (FGFR-2): > 1000 nM
- selectivity for kinases (kinases): good selectivity
- IC50 (RET): > 1000 nM
- IC50 (Abl): > 1000 nM
- IC50 (FGFR-1): > 1000 nM
- IC50 (KDR): > 1000 nM
- IC50 (FGFR-3): > 1000 nM
- IC50 (ErbB2): > 1000 nM
- IC50 (AXL): > 1000 nM
- IC50 (Src): > 1000 nM
- IC50 (ALK): > 1000 nM
- IC50 (PDGFR-α): > 1000 nM
- IC50 (IGF-1R): > 1000 nM
- IC50 (C-Kit): > 1000 nM
- IC50 (Met): > 1000 nM
- IC50 (PDGFR-β): > 1000 nM
- IC50 (Flt-3): > 1000 nM
- IC50 (ErbB4): > 1000 nM
- IC50 (FGFR-4): > 1000 nM
- IC50 (VEGFR-1): > 1000 nM
Structure (SMILES): CC(NC(=O)c1ccc(C2CC2)c(-c2ccc3nc(Nc4cnn(C5CC5)c4)ncc3c2)c1)c1cccc(C(F)(F)F)c1 (centres unmarked) [Compound S16, 4-cyclopropyl-3-(2-((1-cyclopropyl-1H-pyrazol-4-yl)amino)quinazolin-6-yl)-N-(1-(3-(trifluoromethyl)phenyl)ethyl)benzamide]
